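How tested: cells in 96-well plates exposed to compound for 48 hours at five concentrations. At the TGI there is no net growth.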
Assays:
Experiment in all cases: NCI-60 cell line screen, 48 h
[1] = system: HOP-92 NSCLC
[2] = system: SN12C renal
[3] = system: CAKI-1 renal
[4] = system: SF-268 CNS
[5] = system: DLD-1 colon
[6] = system: A498 renal
[7] = system: K-562 leukemia
[8] = system: UACC-62 melanoma
[9] = system: DMS 273 small cell lung
[10] = system: ACHN renal
[11] = system: SW-620 colon
[12] = system: HCT-15 colon
[13] = system: OVCAR-4 ovarian
[14] = system: OVCAR-8 ovarian
[15] = system: NCI-H460 lung
[16] = system: OVCAR-5 ovarian
[17] = system: OVCAR-3 ovarian
[18] = system: HT29 colon
[19] = system: NCI-H522 lung
[20] = system: RXF 393 renal
[21] = system: NCI-H226 lung
[22] = system: CCRF-CEM leukemia
[23] = system: SF-295 CNS
[24] = system: IGROV1 ovarian
[25] = system: M19-MEL melanoma
[26] = system: HCT-116 colon
[27] = system: LOX IMVI melanoma
[28] = system: KM20L2 colon
[29] = system: SNB-75 CNS
[30] = system: NCI-H23 lung
[31] = system: LXFL 529 NSCLC
[32] = system: HOP-18 NSCLC
[33] = system: SK-MEL-28 melanoma
[34] = system: MALME-3M melanoma
[35] = system: TK-10 renal
[36] = system: SR leukemia
[37] = system: RXF-631 renal
[38] = system: SK-MEL-5 melanoma
[39] = system: SNB-78 CNS
[40] = system: M14 melanoma
[41] = system: COLO 205 colon
[42] = system: HCC-2998 colon
[43] = system: MOLT-4 leukemia
[44] = system: DMS 114 small cell lung
[45] = system: UO-31 renal
[46] = system: 786-0 renal
[47] = system: A549 NSCLC
[48] = system: SK-MEL-2 melanoma
[49] = system: EKVX NSCLC
[50] = system: RPMI-8226 leukemia
[51] = system: U251 CNS
[52] = system: HL-60(TB) leukemia
[53] = system: SK-OV-3 ovarian
[54] = system: SNB-19 CNS
[55] = system: HOP-62 NSCLC
[56] = system: KM12 colon
[57] = system: UACC-257 melanoma
[58] = system: SF-539 CNS

COc1ccc(NC(=O)C(=O)NO)c(OC)c1
TGI [1]: 35.7 µM | TGI [2]: 39.6 µM | TGI [3]: 27.3 µM | TGI [4]: 32.1 µM | TGI [5]: 41 µM | TGI [6]: 39 µM | TGI [7]: 56.4 µM | TGI [8]: 28.9 µM | TGI [9]: 35.3 µM | TGI [10]: 29.3 µM | TGI [11]: 34.5 µM | TGI [12]: 31.2 µM | TGI [13]: 37.7 µM | TGI [14]: 33.3 µM | TGI [15]: 33.4 µM | TGI [16]: 33.6 µM | TGI [17]: 30.3 µM | TGI [18]: 38.1 µM | TGI [19]: 19 µM | TGI [20]: 29.2 µM | TGI [21]: 41.6 µM | TGI [22]: 98 µM | TGI [23]: 27 µM | TGI [24]: 32 µM | TGI [25]: 38.9 µM | TGI [26]: 32.4 µM | TGI [27]: 27.2 µM | TGI [28]: 33.3 µM | TGI [29]: 35.3 µM | TGI [30]: 34.1 µM | TGI [31]: 30.3 µM | TGI [32]: 31.1 µM | TGI [33]: 33.1 µM | TGI [34]: 54.6 µM | TGI [35]: 37.1 µM | TGI [36]: 25.9 µM | TGI [37]: 57 µM | TGI [38]: 32.5 µM | TGI [39]: 44.1 µM | TGI [40]: 29.9 µM | TGI [41]: 37.7 µM | TGI [42]: 35.8 µM | TGI [43]: 35.2 µM | TGI [44]: 29 µM | TGI [45]: 29.8 µM | TGI [46]: 29.6 µM | TGI [47]: 35.4 µM | TGI [48]: 30.9 µM | TGI [49]: 28.7 µM | TGI [50]: 49.1 µM | TGI [51]: 30.5 µM | TGI [52]: 43 µM | TGI [53]: 33.7 µM | TGI [54]: 28.2 µM | TGI [55]: 35.1 µM | TGI [56]: 34.2 µM | TGI [57]: 38 µM | TGI [58]: 36.3 µM

Reference: PubChem BioAssay (NCI)
